Source: patent US20060052453A1, “Agent for treating Parkinson's disease comprising astrocyte function-improving agent as active ingredient” (priority 2000, published 2006)

Experiments:
dogs = test: Single intravenous dose toxicity in dogs; type: in vivo; conditions: single dose of 100 mg/kg
Text: It has been confirmed that the compounds of the present invention represented by formula (I) have such low toxicity as being sufficiently safe in using as drugs.

[1] = system: Experimental Model of Parkinson's Disease Induced by Administration of MPTP; test: Experimental model of Parkinson's disease induced by administration of MPTP; striatal dopamine and DOPAC content by HPLC; type: in vivo, mice; conditions: for DOPAC content / Dopamine content: average ± standard deviation
Description: Improvement Effect of the Compound of the Present Invention in Experimental Model of Parkinson's Disease Induced by Administration of MPTP Male C57BL/6 mice (body weight: 20 to 28 g) were divided into groups each having 6 to 12 animals. Without anesthetizing, MPTP (10 mg/kg; 1-methyl-4-phenyl-1,2,3,6-tetrahydropyridine hydrochloride) was intraperitoneally administered to the mice 4 times at intervals of 1 hour (Brain Res., 824: 224-231 (1999)). To the models thus prepared, Compound A of the present invention ((R)-2-propyloctanoic acid) was administered after 1, 6, 24 and 48 hours. Three days after the final administration, striata of the mice were collected. After weighing, the striata were immediately frozen and stored. Then, dopamine content and DOPAC (3,4-dihydroxypyenylacetate) content were measured by HPLC in a conventional manner and evaluated. […] Dunnett's multiple comparison test (both sides) was performed on the basis of the data of the group with the administration of MPTP alone. The values in Table 1 are shown by the average±the standard deviation.

[2] = Compound A alone 30 mg/kg, no MPTP, male C57BL/6 mice, striatum
[3] = MPTP (10 mg/kg i.p. x4) + compound A 3 mg/kg at 1, 6, 24 and 48 hours, striatum 3 days after final administration
[4] = MPTP (10 mg/kg i.p. x4) + compound A 10 mg/kg at 1, 6, 24 and 48 hours, striatum 3 days after final administration
[5] = MPTP (10 mg/kg i.p. x4) + compound A 30 mg/kg at 1, 6, 24 and 48 hours, striatum 3 days after final administration

`CCCCCC[C@@H](CCC)C(=O)O` [Compound A, (R)-2-propyloctanoic acid] was tested, and the Death (dogs) was “no case of death was observed”, the DOPAC content [1, 2] was 2.97 ± 0.49 µg/g and the Dopamine content [1, 2] was 12.17 ± 1.41 µg/g. For the same molecule, the DOPAC content [1, 3] was 1.30 ± 0.31 µg/g, the Dopamine content [1, 3] was 4.13 ± 1.48 µg/g and the DOPAC content [1, 4] was 2.07 ± 0.77 µg/g. The Dopamine content [1, 4] was 5.45 ± 2.00 µg/g, the DOPAC content [1, 5] was 2.26 ± 0.52 µg/g and the Dopamine content [1, 5] was 6.75 ± 2.72 µg/g. The “Dopamine and DOPAC content compared with the group of MPTP alone” value ([1]; MPTP + compound groups vs MPTP alone, Dunnett's multiple comparison test) was “significantly increased dopamine and DOPAC content depending on the dose” and the “Adverse effect when used alone” value ([1]; compound alone in normal animals, data compared with control group) was “no adverse effect”.
